From US6391897B2, “Biphenyl oxo-acetic acids useful in the treatment of insulin resistance and hyperglycemia” (American Home Products Corporation, priority 1998, dated 2002)
Read-outs that look alike come from different tables or passages of the source.

Columns and labels:
diabetic (ob/ob) mice = assay: Blood glucose lowering in diabetic (ob/ob) mice; type: in vivo; details: Mus musculus, po
Human recombinant PTP1B = biological target: T1, Human recombinant PTP1B (Homo sapiens, UniProt P18031); assay: Inhibition of tri-phosphorylated insulin receptor dodecaphosphopeptide dephosphorylation by hPTP1B (malachite green); type: biochemical; details: compound at 2.5 uM
T1 construct: made in house
T1 sequence (P18031 1-435): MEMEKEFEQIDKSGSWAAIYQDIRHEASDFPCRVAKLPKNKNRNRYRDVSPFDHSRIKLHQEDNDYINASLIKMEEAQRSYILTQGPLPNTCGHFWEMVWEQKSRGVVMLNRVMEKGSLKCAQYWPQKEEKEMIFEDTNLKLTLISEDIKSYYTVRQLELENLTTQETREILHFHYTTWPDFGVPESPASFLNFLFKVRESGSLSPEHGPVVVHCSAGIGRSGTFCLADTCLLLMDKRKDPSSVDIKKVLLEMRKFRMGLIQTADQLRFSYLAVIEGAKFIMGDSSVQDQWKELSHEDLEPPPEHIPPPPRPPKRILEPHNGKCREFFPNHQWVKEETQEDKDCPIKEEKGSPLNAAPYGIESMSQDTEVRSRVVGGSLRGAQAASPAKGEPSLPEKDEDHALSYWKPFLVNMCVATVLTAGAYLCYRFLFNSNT

[1] = read-out: % Change Insulin from Vehicle

| Structure (SMILES) | change in vivo at 100 mg/kg (diabetic (ob/ob) mice; 96 h, plasma glucose on Day 4, 7 or 14, read-out: % Change Glucose from Vehicle) [%] | change in vivo at 100 mg/kg (diabetic (ob/ob) mice; [1]) [%] | percent of phosphatase control (change) at 2.5 uM (Human recombinant PTP1B) |
| --- | --- | --- | --- |
| CC1(COc2ccc(CC3SC(=O)NC3=O)cc2)CCCCC1 (centres unmarked) [Ciglitazone, 5-(4-(1-methylcyclohexylmethoxy)benzyl)-2,4-dione] | -43 | -39 | – |
| O=C(O)COc1ccc(-c2ccc(-c3c(Br)oc4ccccc34)cc2)cc1 [Example 6, [4′-(2-Bromo-benzofuran-3-yl)-biphenyl-4-yloxy]-acetic acid] | – | – | −15 (2.5 uM) % |
| O=C(O)C(Cc1ccccc1)Oc1ccc(-c2ccc(-c3c(Br)oc4ccccc34)cc2)cc1 (centres unmarked) [Example 7, 2-[4′-(2-Bromo-benzofuran-3-yl)-biphenyl-4-yloxy]-3-phenyl-propionic acid] | – | – | −58 (2.5 uM) % |
| O=C(c1ccccc1)c1oc2ccccc2c1-c1ccc(-c2ccc(OC(Cc3ccccc3)C(=O)O)cc2)cc1 (centres unmarked) [Example 14, 2-[4′-(2-Benzoyl-benzofuran-3-yl)-biphenyl-4-yloxy]-3-phenyl-propionic acid] | – | 19.8 | – |
| COC(=O)[C@H](Cc1ccccc1)Oc1ccc(-c2ccc(-c3c(Cc4ccccc4)oc4ccccc34)cc2)cc1 [Example 23, (2S)-2-[4′-(2-Benzyl-benzofuran-3-yl)-biphenyl-4-yloxy]-3-phenyl-propionic acid methyl ester] | – | – | −36 (2.5 uM) % |
| O=C(O)[C@H](Cc1ccccc1)Oc1ccc(-c2ccc(-c3nc4ccccc4n3Cc3ccccc3)cc2)cc1 [Example 70, (2S)-2-[4′-(1-Benzyl-1H-benzimidazol-2-yl)-biphenyl-4-yloxy]-3-phenyl-propionic acid] | – | – | −41 (2.5 uM) % |
| CC(=O)c1ccc(-c2ccc(-c3ccc(O[C@@H](Cc4ccccc4)C(=O)[O-])cc3)cc2)s1.[Na+] [Example 71, (2S)-2-[4′-(5-acetyl-thiophen-2-yl)-biphenyl-4-yloxy]-3-phenyl-propionic acid sodium salt] | – | – | −43 (2.5 uM) % |
